15 compounds from patent publication US9238632B2, “3-cyanoanilinoalkylarylpiperazine derivative and use thereof in preparing drugs” (NHWA Pharma. Corporation, priority 2012, dated 2016) can be followed below.

Molecules are shown by their SMILES. Counter-ions that a name gives are not always drawn.

A word on the inhibition: it is the relative decrease from the control value, in per cent.

In one assay the target is hSERT (Homo sapiens, UniProt P31645). The experiment in a line: In vitro inhibition of serotonin reuptake ([3H]-5-HT) in cells stably expressing hSERT. To be noted: read-out: Inhibition rates of SERT reuptake [3H]-5-HT.
hSERT, sequence (P31645 whole entry): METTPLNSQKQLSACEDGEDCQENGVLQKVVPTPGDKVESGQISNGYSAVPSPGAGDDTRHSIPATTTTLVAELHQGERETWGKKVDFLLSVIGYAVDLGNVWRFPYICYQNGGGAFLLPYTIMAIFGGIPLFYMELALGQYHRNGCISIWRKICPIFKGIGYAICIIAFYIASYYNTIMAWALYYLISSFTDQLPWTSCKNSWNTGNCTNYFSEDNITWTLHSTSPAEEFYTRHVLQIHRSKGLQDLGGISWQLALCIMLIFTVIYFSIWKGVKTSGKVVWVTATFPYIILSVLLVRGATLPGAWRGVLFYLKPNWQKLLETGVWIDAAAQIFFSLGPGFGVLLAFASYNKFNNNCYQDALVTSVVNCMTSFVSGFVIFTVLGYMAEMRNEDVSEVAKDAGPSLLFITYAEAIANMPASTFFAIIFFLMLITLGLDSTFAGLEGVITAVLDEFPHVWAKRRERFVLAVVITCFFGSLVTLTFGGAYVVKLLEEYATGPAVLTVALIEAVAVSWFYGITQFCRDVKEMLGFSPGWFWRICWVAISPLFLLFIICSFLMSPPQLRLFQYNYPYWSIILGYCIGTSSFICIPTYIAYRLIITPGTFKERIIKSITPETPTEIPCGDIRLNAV
A further assay addresses T1, 5-HT2A receptor (Rattus norvegicus, UniProt P14842).
T1 construct: The supernatant is discarded and the precipitate (membrane receptor) is stocked; from tissue; host or cells: SD rat cerebral cortex membranes
The experiment in a line: In vitro competitive binding test to 5-HT2A receptor ([3H]-Ketanserin, rat cerebral cortex membranes). The settings on record: 10 μmol/L compound; hydrochloride salts; rat cerebral cortex membrane; unit (I %); read-out: 5-HT2A affinity [3H]-Ketanserin (inhibition rate of radioligand binding). As to the method:
(§1) Animals: clean grade SD rats, female and male, 250-300 g, purchased from Nanjing QingLongshan animal breeding center.
(§2) Radioligand: [^3H]-8-OH-DPAT, [^3H]-Ketanserin, purchased from PerkinElmer company; 5-HT and Methysergide, purchased from Sigma company.
Preparation of 5-HT2A buffer solution: Tris (6.05 g) is dissolved in ultrapure water (1000 ml). PH is adjusted to 7.4 with HCl. Tris-HCl buffer solution (0.05M) is used.
(§3) Preparation of radioligand: 50 μl mother liquor is diluted to 5 ml with anhydrous ethanol, and stocked for use.
(§4) Preparation of non-labeling ligand: appropriate amounts of 5-HT and Methysergide are dissolved in ultrapure water to give solutions with final concentrations of 2*10^−5M respectively.
(§5) Preparation of solutions of various test drugs: appropriate amount of each drug is first diluted to 1 ml with ultrapure water as stock solution. When needed, 10 μl of the stock solution is diluted to 1 ml to reach a level of 10^−5M.
(§6) Rats are decapitated to get the brains. The target tissues (left and right cerebral cortex) are separated on ice, added with 10-fold volume (V/W) of ice-cold buffer, and homogenized with tissue Homogenizer for several seconds 3 times to form tissue homogenate. The tissue homogenate is centrifuged with low temperature superb centrifuge (12000 r/min) 3 times, with each for 20 minutes. The supernatant is discarded and the precipitate (membrane receptor) is stocked in −80° C. ultralow temperature freezer.
(§7) The membrane receptor is added with certain volume of ice-cold buffer and homogenized to make membrane receptor solutions at certain concentrations.
(§8) Various reaction solutions are added in the following sequences and ratios:
(§9) Total binding tube: 100 μl membrane receptor+100 μl buffer+10 μl radioligand
(§10) Non-specific tube: 100 μl membrane receptor+100 μl non-labeling ligand+10 μl radioligand
(§11) Test compound tube: 100 μl membrane receptor+100 μl drug solution+10 μl radioligand
(§12) Above tubes are put in 37° C. water bath immediately after finishing adding radioligand into each of them and then incubated for 25 min. After 25 min, the tubes are put in ice water to quench the reaction. Each tube is poured into suction filtration device to filter, and the filter membrane is washed with 5-10 ml ice-cold buffer twice. The filter membrane is dried in 85° C. oven, and then put into test tubes, and added with certain amount of scintillation liquid to soak overnight. Radioactivity is determined using liquid scintillation counter.
(§13) Each compound is tested in duplicate, and the tests are carried out independently twice.

Another assay has as its target T2, 5-HT1A receptor (Rattus norvegicus, UniProt P19327).
T2 construct: The supernatant is discarded and the precipitate (membrane receptor) is stocked; from tissue; host or cells: SD rat cerebral cortex membranes
T2 sequence (P19327 1-422): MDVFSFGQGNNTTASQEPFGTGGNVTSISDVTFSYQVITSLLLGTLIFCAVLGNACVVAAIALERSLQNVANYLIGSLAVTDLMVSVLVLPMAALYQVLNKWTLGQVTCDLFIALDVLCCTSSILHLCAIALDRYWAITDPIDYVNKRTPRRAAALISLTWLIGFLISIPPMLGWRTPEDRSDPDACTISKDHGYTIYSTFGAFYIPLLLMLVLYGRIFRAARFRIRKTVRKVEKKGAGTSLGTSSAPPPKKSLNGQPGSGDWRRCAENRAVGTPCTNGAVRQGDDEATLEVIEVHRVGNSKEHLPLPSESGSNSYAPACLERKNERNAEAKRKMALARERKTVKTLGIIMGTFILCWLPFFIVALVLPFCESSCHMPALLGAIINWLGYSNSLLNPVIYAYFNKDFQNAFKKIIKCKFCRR
The experiment in a line: In vitro competitive binding test to 5-HT1A receptor ([3H]-8-OH-DPAT, rat cerebral cortex membranes). To be noted: 10 μmol/L compound; hydrochloride salts; rat cerebral cortex membrane; unit (I %); read-out: 5-HT1A affinity [3H]-8-OH-DPAT (inhibition rate of radioligand binding). The procedure: as §1, §2
Preparation of 5-HT1A buffer solution: Tris-HCl buffer solution (0.05M, 1000 ml) is added with certain amount of ascorbic acid, pargyline and CaCl2, to give final concentrations of 0.1%(ascorbic acid), 10 um (pargyline) and 4 mM (CaCl2) separately.
as §3, §4, §5, §6, §7, §8, §9, §10, §11, §12, §13

For assay [1], the system named is rat formalin induced pain model. The experiment in a line: Rat formalin induced pain model (leg-raising times). The settings on record: 100 mg/kg intragastric, formalin 1 h later; Mean ± SD, n=10. Format: in vivo, SD rats. The text has this:
Rat formalin induced pain model is used to test in vivo analgesic effect of hydrochloride of compound III-10.
Rat formalin induced pain model is established by Dubuisson and Dennis in 1977. It can simulate some characteristics of human pains after damages, and its persistent tension pain is similar to common clinical chronic pains. Its experimental results have excellent repeatability, and it is considered to be universally accepted pain model which is more reliable than short-term mechanical or thermal stimulation models. It has been generally used in investigation and determination of pain mechanism, pain physiology and pharmacology, screening of the analgesic effects of drugs and evaluation of analgesic drugs.
Test compounds are prepared to relevant doses with 0.5% CMC-Na before use.
Formaldehyde solution: batch number HN20041109, HuaDong reagent industrial company. In experiment, it is diluted to 5% formaldehyde solution with 0.9% sodium chloride injection.
90 SD rats of weight (240-350 g), half female and half male, are fed for I week to adapt the environment, with 5 in each cage during feeding, the rats are fed under standard condition during experiments with free access to water and food.
90 SD rats of weight 240-350 g are randomly divided into 9 groups which are negative control group, model group, gabapentin group, high, median and low dosage group of each compound respectively, with 10 rats in each group, half female and half male. Relevant test compounds are given by intragastric administration, and 5% formalin (50 ul) is subcutaneously injected at the left rear foot in 1 h to model, formation of pichu indicates a successful modeling. 0.5% (weight percentage) CMC-Na is given by intragastric administration in negative control group, and normal saline (50 ul) is subcutaneously injected at the bottom of right rear foot in 1 h. After modeling, the leg-raising times in 1-2 minutes and 5-6 minutes are observed. The time period 10-60 minutes are divided into 5 minutes intervals, and the leg-raising times of the first minute of each interval (10-11, 15-16, 20-21, 25-26, 30-31, 35-36, 40-41, 45-46, 50-51, 55-56, 60-61) are observed.
Measuring index is expressed as mean±standard deviation (Mean±SD), comparison is analyzed with One-way ANOVA.

Assay [2] relates to mice tail suspension test. The experiment in a line: Mice tail suspension test (immobility time). Format: in vivo, KM mice. To be noted: 40 mg/kg intragastric, 1 h post dose, last 4 min of 6 min, n=10, mean ± SD. As to the method:
Control drug: duloxetine hydrochloride, fluoxetine hydrochloride
A few days before the experiment, mice with qualified body weight are selected and divided into groups. The experiments are carried out in 2 days. In D1, mice are put on bar of tail suspension instrument for 6 min, the immobility time of the last 4 min are recorded. […] Blank control group, positive control group and each test compound group are set.
The mean values of immobility time for each group are calculated, the results are expressed as “mean±standard deviation”.

T1 sequence (P14842 whole entry): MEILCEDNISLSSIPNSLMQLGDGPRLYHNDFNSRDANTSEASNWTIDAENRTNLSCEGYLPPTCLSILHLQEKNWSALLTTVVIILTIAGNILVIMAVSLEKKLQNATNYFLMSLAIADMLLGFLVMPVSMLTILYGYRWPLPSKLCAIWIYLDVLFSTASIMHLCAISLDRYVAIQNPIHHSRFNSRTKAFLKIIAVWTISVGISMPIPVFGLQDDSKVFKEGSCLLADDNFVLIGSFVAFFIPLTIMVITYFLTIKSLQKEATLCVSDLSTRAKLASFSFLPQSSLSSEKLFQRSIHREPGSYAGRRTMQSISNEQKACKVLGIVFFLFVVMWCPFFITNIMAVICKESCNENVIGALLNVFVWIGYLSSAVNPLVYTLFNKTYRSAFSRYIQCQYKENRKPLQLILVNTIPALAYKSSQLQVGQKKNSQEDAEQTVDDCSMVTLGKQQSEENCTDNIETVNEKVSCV
Method for hSERT: Positive control compound: fluoxetine.
Sample treatment: about 1 mg of compound is weighted and added with relative amount of DMSO to prepare 10^−2M stock solution. Before use, the stock solution is diluted with HBSS buffer to relative concentrations. Each sample is dissolved in DMSO completely. The dilution is clear and without obvious cloudy and formation of precipitate after adding with buffer.
(1) Cells which can stably express hSERT are seeded into 24-well plates respectively.
(2) Experiments are started when the cell confluence reaches 80-90%.
(3) Liquids in the plates are discarded, the plates are washed with PBS twice at room temperature.
(5) Plates are incubated at 37° C. for 10 min after slight oscillation.
(6) Then 20 μl radioisotope is added (cpm: about 20000).
(7) Plates are incubated at 37° C. for 5 min after slight oscillation.
(8) Liquids in the plates are discarded, the plates are washed with ice-cold PBS twice, all the liquids in the plates are removed away.
(9) NaOH (2M, 100 μl) is added into each well to lyse the cells. All the lysates are combined and put on GF/C glass fiber filter paper.
(10) The filter papers are dried and put in 0.5 ml centrifuge tube, 500 μl lipid soluble scintillation liquid are added. Radioactivity is determined by MicroBeta liquid scintillation counter. Each concentration is tested intriplicate, and tests are carried out independently twice.
Test concentration is 10 μmol/L. The positive drug provided is set as control (10 μmol/L) in each experiment. The experimental processes are the same as the above process.

As for `COc1cncnc1N1CCN(CCCN(C)c2cccc(C#N)c2)CC1` [III-12], the figures for the inhibition at 10 µM on hSERT, at 5-HT2A receptor and at 5-HT1A receptor were 94.4%, 132% and 114%, respectively.

Turning to `COc1c(Cl)ncnc1N1CCN(CCN(C)c2cccc(C#N)c2)CC1` [III-6, 3-((2-(4-(6-chloro-5-methoxylpyrimidin-1-yl)piperazin-1-yl)ethyl)methylamino)benzonitrile], the results for the inhibition at 10 µM at hSERT, at 5-HT2A receptor and at 5-HT1A receptor were 98.3%, 84.5% and 91.6%, respectively.

For `NCC1(CC(=O)O)CCCCC1` [Gabapentin, gabapentin, reference compound], in assay [1], the “phase I times (leg-raising times)” value is 11.60 ± 6.75 time and the “phase II times (leg-raising times)” value stood at 74.7 ± 39.45 time.

On to `COc1ccccc1N1CCN(CCCN(C)c2cccc(C#N)c2)CC1` [III-9, 3-((3-(4-(2-methoxyphenyl)piperazin-1-yl)propyl)methylamino)benzonitrile], for which the inhibition at 10 µM on hSERT came out at 104%; on 5-HT2A receptor, 154%; at 5-HT1A receptor it was 125%.

On to `CNCCC(Oc1ccc(C(F)(F)F)cc1)c1ccccc1` (stereo not drawn) [fluoxetine], for which the Immobility time is listed as 69.9 ± 27.4 S in assay [2] and “significantly decreased immobility time” in assay [2] (listed as fluoxetine hydrochloride).

Regarding `CN(CCN1CCN(c2cccc(C(F)(F)F)c2)CC1)c1cccc(C#N)c1` [III-2, 3-(methyl(2-(4-(3-trifluoromethylphenyl)piperazin-1-yl)ethyl)amino)benzonitrile], the inhibition at 10 µM at hSERT came out at 97.8%; at 5-HT2A receptor, 131%; on 5-HT1A receptor, 119%.

As to `CNCC[C@H](Oc1cccc2ccccc12)c1cccs1` [dutoxetine, duloxetine hydrochloride], the Immobility time was 28.2 ± 27.3 S in assay [2] (hydrochloride) and “significantly decreased immobility time” in assay [2] (listed as dutoxetine hydrochloride, hydrochloride).

Take `COc1cncnc1N1CCN(CCN(C)c2cccc(C#N)c2)CC1` [III-7]: the results for the inhibition at 10 µM at hSERT, on 5-HT2A receptor and on 5-HT1A receptor were 81.7%, 101% and 83.2%, respectively.

With `CN(CCN1CCN(c2cccc(Cl)c2)CC1)c1cccc(C#N)c1` [III-3, 3-((2-(4-(3-chlorophenyl)piperazin-1-yl)ethyl)methylamino)benzonitrile], the inhibition at 10 µM at hSERT was 98.3%; at 5-HT2A receptor, 107%; on 5-HT1A receptor, 155%.

`CCN(CCCN1CCN(c2ccccc2OC)CC1)c1cccc(C#N)c1` [III-14, 3-((3-(4-(2-methoxyphenyl)piperazin-1-yl)propyl)ethylamino)benzonitrile]: the inhibition at 10 µM on hSERT stood at 98.2%; on 5-HT2A receptor, 135%; on 5-HT1A receptor, 112%.

`CN(CCCN1CCN(c2cccc(Cl)c2Cl)CC1)c1cccc(C#N)c1` [III-13, 3-((3-(4-(2,3-dichlorophenyl)piperazin-1-yl)propyl)methylamino)benzonitrile]: the inhibition at 10 µM on hSERT was found to be 86.9%; on 5-HT2A receptor it was 149%; at 5-HT1A receptor, 119%.

In the case of `COc1ccccc1N1CCN(CCN(C)c2cccc(C#N)c2)CC1` [III-1, 3-((2-(4-(2-methoxyphenyl)piperazin-1-yl)ethyl)methylamino)benzonitrile], the inhibition at 10 µM was 97.3% at hSERT, 98.9% on 5-HT2A receptor and 154% on 5-HT1A receptor.

As for `CN(CCN1CCN(c2cccc(Cl)c2Cl)CC1)c1cccc(C#N)c1` [III-4, 3-((2-(4-(2,3-dichlorophenyl)piperazin-1-yl)ethyl)methylamino)benzonitrile], the inhibition at 10 µM was 93.4% on hSERT, 104% on 5-HT2A receptor and 126% at 5-HT1A receptor.

Regarding `Cc1cccc(N2CCN(CCCN(C)c3cccc(C#N)c3)CC2)c1C` [III-11, 3-((3-(4-(2,3-dimethylphenyl)piperazin-1-yl)propyl)methylamino)benzonitrile], the figures for the inhibition at 10 µM on hSERT, on 5-HT2A receptor and at 5-HT1A receptor were 96.6%, 145% and 102%, respectively.

In the case of `Cc1cccc(N2CCN(CCN(C)c3cccc(C#N)c3)CC2)c1C` [III-5, 3-((2-(4-(2,3-dimethylphenyl)piperazin-1-yl)ethyl)methylamino)benzonitrile], the figures for the inhibition at 10 µM at hSERT, at 5-HT2A receptor and at 5-HT1A receptor were 99.7%, 134% and 121%, respectively.
